Measurements reported in US11530217B1, “Antitubercular compounds” (priority 2022, dated 2022).
In brackets after ≈: the same amount, converted by molar mass. Like-named read-outs stand apart in the source and are kept apart here.

Tested on: susceptible H37Rv MTB strain
Experiment: Resazurin Microplate Assay (REMA), anti-tubercular activity, H37Rv
Type: cell-based
Details: Mycobacterium tuberculosis, 192 h, read-out: MIC (μg/mL) H37Rv
[1] = in vitro, REMA, susceptible H37Rv MTB strain, 8 days incubation

Row | SMILES | MIC [1] [µg/mL] | MIC (H37RV) [µg/mL]
1 | COC(=O)c1c(C(=O)OC)c2c(C)cc(C)cn2c1C(=O)c1ccc(Cl)cc1 [Compound 5d, Dimethyl 3-(4-chlorobenzoyl)-6,8-dimethylindolizine-1,2-dicarboxylate] | 8 (≈ 20 µM) | 
2 | CCOC(=O)c1cc(C(=O)c2ccccc2[N+](=O)[O-])n2cc(C)cc(C)c12 [Compound 5h, Ethyl 6,8-dimethyl-3-(2-nitrobenzoyl)indolizine-1-carboxylate] |  | 4 (≈ 10.9 µM)
3 | CCOC(=O)c1cc(C(=O)c2cc(C(F)(F)F)cc(C(F)(F)F)c2)n2cc(C)cc(C)c12 [Compound 5i, Ethyl 3-(3,5-bis(trifluoromethyl)benzoyl)-6,8-dimethylindolizine-1-carboxylate] |  | 4 (≈ 8.75 µM)
4 | CCOC(=O)c1cc(C(=O)c2ccc(C#N)cc2)n2cc(C)cc(C)c12 [Compound 5j, Ethyl 3-(4-cyanobenzoyl)-6,8-dimethylindolizine-1-carboxylate] |  | 0.5 (≈ 1.44 µM)
5 | COC(=O)c1c(C(=O)OC)c2c(C)cc(C)cn2c1C(=O)c1ccc(OC)cc1 [Compound 5b, Dimethyl 3-(4-methoxybenzoyl)-6,8-dimethylindolizine-1,2-dicarboxylate] |  | 4 (≈ 10.1 µM)
6 | CCOC(=O)c1cc(C(=O)c2ccc(C)cc2)n2cc(C)cc(C)c12 [Compound 5k, Ethyl 6,8-dimethyl-3-(4-methylbenzoyl)indolizine-1-carboxylate] |  | 0.5 (≈ 1.49 µM)
7 | COC(=O)c1c(C(=O)OC)c2c(C)cc(C)cn2c1C(=O)c1ccc(C)cc1 [Compound 5m, Dimethyl 6,8-dimethyl-3-(4-methylbenzoyl)indolizine-1,2-dicarboxylate] |  | 0.25 (≈ 0.659 µM)
8 | CCOC(=O)c1cc(C(=O)c2ccc(F)cc2)n2cc(C)cc(C)c12 [Compound 5g, Ethyl 3-(4-fluorobenzoyl)-6,8-dimethylindolizine-1-carboxylate] |  | 4 (≈ 11.8 µM)
9 | COC(=O)c1c(C(=O)OC)c2c(C)cc(C)cn2c1C(=O)c1ccc(C#N)cc1 [Compound 5l, Dimethyl 3-(4-cyanobenzoyl)-6,8-dimethylindolizine-1,2-dicarboxylate] | 4 (≈ 10.2 µM) | 
10 | CCOC(=O)c1cc(C(=O)c2ccc(Cl)cc2)n2cc(C)cc(C)c12 [Compound 5c, Ethyl 3-(4-chlorobenzoyl)-6,8-dimethylindolizine-1-carboxylate] | 0.5 (≈ 1.41 µM) | 
